Experimental data: US9732044B2, “N-(pyrid-4-yl)amides and N-(pyrimidin-4-yl)amides and their pharmaceutical and cosmetic use” (GALDERMA RESEARCH & DEVELOPMENT, priority 2011, dated 2017)
Read-outs that look alike come from different tables or passages of the source.

How the values were obtained:
androgen receptor (AR) = androgen receptor (AR) (Homo sapiens (Human), UniProt P10275); assay: Androgen receptor transactivation test in PALM cell line (cross curves against methyl trienolone); format: cell-based
Procedure: This AR inhibiting activity was measured in a transactivation test by the dissociation constants KdR (rest), KdA (active), and Kdapp (apparent).
A compound may be said to be an AR inhibitor if it has a dissociation constant, Kdapp, of less than or equal to 1 μM, and a KdR/KdA ratio of less than or equal to 10 in a transactivation test.
The transactivation test is carried out in the cell line PALM (PC3 androgen receptor Luciferase MMTV), which is a stable transfectant containing the plasmids PMMTV-neo-Luc (reporter gene) and pSG5puro-AR.
In this study, the affinity of each test compound for the 2 states of the receptor (KdR and KdA) is determined together with the apparent Kd (KdApp). This constant depends upon the 2 Kd's (KdR and KdA), but also depends on the initial equilibrium of the receptor between the active state and rest state (L0) and on its expression rate. It is determined by the following formula: 1/KdApp=(L0/(1+L0))×(1/KdR)+(1/(1+L0))×(1/KdA)
In order to determine these constants, “cross curves” of the test compound against a reference agonist, methyl trienolone, are carried out on a 96-well plate. The test compound is used in 10 concentrations and the reference agonist in 7 concentrations.

[1] = system: sebaceous gland of the ear of a Syrian hamster; assay: In vivo animal model with reduction in the size of the sebaceous glands (Syrian hamster ear); conditions: 1 g %/mL solution, topical on ear, daily for 24 days, compared to control (absolute ethanol)
Text: The model of the sebaceous gland of the ear of a Syrian hamster described by Plewig and Luderschmidt in J. Inv. Derm., (1977), pp. 171-176 is a classical tool for the in vivo study of the function of the sebaceous gland. In fact, the inner faces of the ear lobes of the hamster contain a high number of sebaceous glands described as being similar to those of human sebaceous follicles in terms of certain characteristics, including their morphology and response to androgens and anti-androgens. In fact the growth and lipogenesis of the sebaceous glands on the inner face of the ear of Syrian hamsters depend on the androgens. The anti-androgenic activity of test compounds can be easily evaluated by measuring the size of the sebaceous glands. Moreover, this model has been selected to evaluate the efficacy of the antagonists of the receptor to the androgens on the sebaceous gland.
Test compounds were evaluated according to the following protocol: male hamsters aged weeks were treated daily for 24 days on the inner face of the right ear with 30 μL of a solution of the test compound to be evaluated in absolute ethanol. For each test compound, groups were treated with solutions at a range of concentrations (e.g., from 0.01 g %/mL to 3 g %/mL), as well as absolute ethanol used as a control. (A concentration of 3 g %/mL means a concentration of 0.03 g/mL.)
At the end of the study, samples were taken from the treated ears. The skin of the inner face of the ear was separated from the cartilage. Under a binocular magnifying glass, two zones of 4 mm^2 were numbered. The size of the sebaceous glands was measured on the numerical images by manually trimming the glands by means of image analysis software (TINA.20). For each image some twenty glands were measured. The average area of the sebaceous glands was calculated for each treatment group.
A Student t-test for independent groups comparing each dose with vehicle was carried out to compare the average size of the sebaceous glands as a function of the doses applied. When the evolution of the effect is represented graphically as a function of the administered dose of test compound, the curve obtained is sigmoid in shape. In the median part, this sigmoid may be likened to a straight line. The dose corresponding to 50% of the maximum effect corresponds graphically to the point located in the centre of the linear section defined as “effective dose 50”. This DE50 characterises the potency of the test compound.

[2] = apparent dissociation constant, PALM cells (PC3 androgen receptor Luciferase MMTV), read-out: Kdapp
[3] = threshold lists, PALM cells, read-out: Kdapp
[4] = Kdapp, threshold lists, PALM cells

androgen receptor (AR), sequence (P10275 whole entry): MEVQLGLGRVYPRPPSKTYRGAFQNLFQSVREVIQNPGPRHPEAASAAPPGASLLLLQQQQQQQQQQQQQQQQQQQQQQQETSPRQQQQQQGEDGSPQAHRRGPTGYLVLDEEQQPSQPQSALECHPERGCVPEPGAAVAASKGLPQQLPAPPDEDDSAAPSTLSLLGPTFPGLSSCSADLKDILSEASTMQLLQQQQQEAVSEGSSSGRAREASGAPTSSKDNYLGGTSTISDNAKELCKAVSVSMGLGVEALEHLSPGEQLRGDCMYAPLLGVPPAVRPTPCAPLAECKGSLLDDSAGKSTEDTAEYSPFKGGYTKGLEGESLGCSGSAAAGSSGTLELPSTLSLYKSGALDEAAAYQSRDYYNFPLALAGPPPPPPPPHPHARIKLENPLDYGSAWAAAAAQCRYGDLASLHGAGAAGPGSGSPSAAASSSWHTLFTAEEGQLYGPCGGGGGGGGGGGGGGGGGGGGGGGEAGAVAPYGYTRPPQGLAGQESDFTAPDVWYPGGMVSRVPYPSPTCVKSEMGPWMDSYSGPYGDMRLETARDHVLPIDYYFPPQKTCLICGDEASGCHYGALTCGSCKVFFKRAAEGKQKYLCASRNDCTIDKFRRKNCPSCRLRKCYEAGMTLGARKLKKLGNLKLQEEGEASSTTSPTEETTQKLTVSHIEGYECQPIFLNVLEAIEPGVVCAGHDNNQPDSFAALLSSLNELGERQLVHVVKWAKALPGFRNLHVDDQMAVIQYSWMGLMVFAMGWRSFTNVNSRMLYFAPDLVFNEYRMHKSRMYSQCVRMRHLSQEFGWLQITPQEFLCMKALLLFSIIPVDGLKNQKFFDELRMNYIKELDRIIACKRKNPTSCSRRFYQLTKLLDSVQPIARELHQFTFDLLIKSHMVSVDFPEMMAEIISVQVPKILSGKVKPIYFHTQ

| SMILES | Kd (androgen receptor (AR); [2]) | Kd (androgen receptor (AR); [3]) | Reduction of sebaceous glands (following treatment at 1 g %/mL) [1] | Kd (androgen receptor (AR); [4]) |
| --- | --- | --- | --- | --- |
| COc1cc(NC(=O)C(C)(O)CC(C)C)cc(Br)n1 (racemic) [Compound 41, 2-Hydroxy-2,4-dimethyl-pentanoic acid (2-bromo-6-methoxy-pyridin-4-yl)-amide] | 20 nM | ≤ 30 nM | 61% |  |
| COc1cc(NC(=O)C(C)(O)CC(C)C)cc(Br)n1 (single isomer, unassigned) [Compound 71A] |  | ≤ 30 nM |  |  |
| COc1cc(NC(=O)C(C)(O)CC(C)C)cc(Br)n1 (single isomer, unassigned) [Compound 71B] |  | ≤ 30 nM | 56% |  |
| CCCCC(C)(O)C(=O)Nc1ccnc(Br)c1 (single isomer, unassigned) [Compound 80A, 2-Hydroxy-2-methyl-hexanoic acid (2-bromo-pyridin-4-yl)-amide] |  | ≤ 100 nM | 51% |  |
| CCCCC(C)(O)C(=O)Nc1ccnc(Br)c1 (single isomer, unassigned) [Compound 80B, 2-Hydroxy-2-methyl-hexanoic acid (2-bromo-pyridin-4-yl)-amide] |  | ≤ 300 nM |  |  |
| CCCC(C)(O)C(=O)Nc1ccnc(Br)c1 (centres unmarked) [Compound 1, 2-Hydroxy-2-methyl-pentanoic acid (2-bromo-pyridin-4-yl)-amide] | 75 nM | ≤ 100 nM | 53% |  |
| CCCCC(C)(O)C(=O)Nc1cc(Br)nc(OC)c1 (centres unmarked) [Compound 8, 2-Hydroxy-2-methyl-hexanoic acid (2-bromo-6-methoxy-pyridin-4-yl)-amide] | 30 nM | ≤ 30 nM | 56% |  |
| CCC(O)(C(=O)Nc1cc(Br)nc(OC)c1)C1CCCC1 (centres unmarked) [Compound 9, N-(2-Bromo-6-methoxy-pyridin-4-yl)-2-cyclopentyl-2-hydroxy-butyramide] |  | ≤ 30 nM |  |  |
| CCC(O)(C(=O)Nc1cc(Br)nc(OC)c1)C(C)C (centres unmarked) [Compound 13, N-(2-Bromo-6-methoxy-pyridin-4-yl)-2-ethyl-2-hydroxy-3-methyl-butyramide] |  | ≤ 30 nM |  |  |
| CCCC(O)(CC)C(=O)Nc1cc(Br)nc(OC)c1 (centres unmarked) [Compound 19, 2-Ethyl-2-hydroxy-pentanoic acid (2-bromo-6-methoxy-pyridin-4-yl)-amide] |  | ≤ 30 nM | 61% |  |
| CCCCC(O)(CCCC)C(=O)Nc1ccnc(Br)c1 [Compound 23, 2-Butyl-2-hydroxy-hexanoic acid (2-bromo-pyridin-4-yl)-amide] | 15 nM | ≤ 30 nM | 51% |  |
| COc1ccc(CCC(C)(O)C(=O)Nc2ccnc(Br)c2)cc1 (centres unmarked) [Compound 24, N-(2-Bromo-pyridin-4-yl)-2-hydroxy-4-(4-methoxy-phenyl)-2-methyl-butyramide] | 300 nM | ≤ 300 nM |  |  |
| COc1cc(NC(=O)C(C)(O)C(C)C)cc(Br)n1 (centres unmarked) [Compound 25, N-(2-Bromo-6-methoxy-pyridin-4-yl)-2-hydroxy-2,3-dimethyl-butyramide] |  | ≤ 30 nM |  |  |
| COc1cc(NC(=O)C(C)(O)c2ccc(F)cc2)ccn1 (centres unmarked) [Compound 27, 2-(4-Fluoro-phenyl)-2-hydroxy-N-(2-methoxy-pyridin-4-yl)-propionamide] |  | ≤ 300 nM |  |  |
| CC(O)(C(=O)Nc1ccnc(Br)c1)c1ccccc1 (centres unmarked) [Compound 32, N-(2-Bromo-pyridin-4-yl)-2-hydroxy-2-phenyl-propionamide] | 100 nM | ≤ 100 nM |  |  |
| COc1cc(NC(=O)C(C)(C)O)cc(Br)n1 [Compound 38, N-(2-Bromo-6-methoxy-pyridin-4-yl)-2-hydroxy-2-methyl-propionamide] |  | ≤ 300 nM |  |  |
| CC(O)(CCc1ccccc1)C(=O)Nc1ccnc(Br)c1 (centres unmarked) [Compound 43, N-(2-Bromo-pyridin-4-yl)-2-hydroxy-2-methyl-4-phenyl-butyramide] | 100 nM |  | 44% | ≤ 100 nM |
| CCC(O)(C(=O)Nc1ccnc(Br)c1)C1CCCC1 (centres unmarked) [Compound 51, N-(2-Bromo-pyridin-4-yl)-2-cyclopentyl-2-hydroxy-butyramide] |  | ≤ 30 nM |  |  |

| SMILES | Kd (androgen receptor (AR); [2]) | Kd (androgen receptor (AR); [3]) | Reduction of sebaceous glands (following treatment at 1 g %/mL) [1] | Kd (androgen receptor (AR); [4]) |
| --- | --- | --- | --- | --- |
| CCCC(C)(O)C(=O)Nc1ccnc(C(=O)OC)c1 (centres unmarked) [Compound 59, 4-(2-Hydroxy-2-methyl-pentanoylamino)-pyridine-2-carboxylic acid methyl ester] | 6000 nM | ≤ 10000 nM |  |  |
| CCCC(C)(O)C(=O)Nc1cc(Br)nc(OC)c1 (centres unmarked) [Compound 60, 2-Hydroxy-2-methyl-pentanoic acid (2-bromo-6-methoxy-pyridin-4-yl)-amide] |  | ≤ 100 nM |  |  |
| CCCC(O)(C(=O)Nc1cc(Br)nc(OC)c1)C(C)C (centres unmarked) [Compound 64, 2-Hydroxy-2-isopropyl-pentanoic acid (2-bromo-6-methoxy-pyridin-4-yl)-amide] |  | ≤ 30 nM |  |  |
| CCCCC(O)(CCCC)C(=O)Nc1cc(Br)nc(OC)c1 [Compound 66, 2-Butyl-2-hydroxy-hexanoic acid (2-bromo-6-methoxy-pyridin-4-yl)-amide] |  | ≤ 100 nM |  |  |
| COc1cc(NC(=O)C(O)(C(C)C)C(C)C)cc(Br)n1 [Compound 68, N-(2-Bromo-6-methoxy-pyridin-4-yl)-2-hydroxy-2-isopropyl-3-methyl-butyramide] |  |  | 57% | ≤ 30 nM |
| COc1cc(NC(=O)C(C)(O)C2CCOCC2)cc(Br)n1 (centres unmarked) [Compound 69, N-(2-Bromo-6-methoxy-pyridin-4-yl)-2-hydroxy-2-(tetrahydro-pyran-4-yl)-propionamide] |  | ≤ 1000 nM |  |  |
| CCCCC(C)(O)C(=O)Nc1cc(Br)nc(OC)c1 (centres unmarked) [Compound 72A, 2-Hydroxy-2-methyl-hexanoic acid (2-bromo-6-methoxy-pyridin-4-yl)-amide] |  | ≤ 30 nM | 48% |  |
| CCC(O)(C(=O)Nc1cc(Br)nc(OC)c1)C1CCCC1 (centres unmarked) [Compound 73A, N-(2-Bromo-6-methoxy-pyridin-4-yl)-2-cyclopentyl-2-hydroxy-butyramide] |  | ≤ 30 nM |  |  |
| CCC(O)(C(=O)Nc1cc(Br)nc(OC)c1)C1CCCC1 (centres unmarked) [Compound 73B, N-(2-Bromo-6-methoxy-pyridin-4-yl)-2-cyclopentyl-2-hydroxy-butyramide] |  | ≤ 100 nM |  |  |
| CCC(O)(C(=O)Nc1cc(Br)nc(OC)c1)C(C)C (centres unmarked) [Compound 74A, N-(2-Bromo-6-methoxy-pyridin-4-yl)-2-ethyl-2-hydroxy-3-methyl-butyramide] |  | ≤ 30 nM |  |  |
| CCCC(O)(CC)C(=O)Nc1cc(Br)nc(OC)c1 (centres unmarked) [Compound 75A, 2-Ethyl-2-hydroxy-pentanoic acid (2-bromo-6-methoxy-pyridin-4-yl)-amide] |  | ≤ 100 nM |  |  |
| CCCC(O)(CC)C(=O)Nc1cc(Br)nc(OC)c1 (centres unmarked) [Compound 75B, 2-Ethyl-2-hydroxy-pentanoic acid (2-bromo-6-methoxy-pyridin-4-yl)-amide] |  | ≤ 100 nM |  |  |
| COc1cc(NC(=O)C(C)(O)C(C)C)cc(Br)n1 (centres unmarked) [Compound 76B, N-(2-Bromo-6-methoxy-pyridin-4-yl)-2-hydroxy-2,3-dimethyl-butyramide] |  | ≤ 100 nM |  |  |
| CCC(O)(C(=O)Nc1ccnc(Br)c1)C1CCCC1 (centres unmarked) [Compound 77A, N-(2-Bromo-pyridin-4-yl)-2-cyclopentyl-2-hydroxy-butyramide] |  | ≤ 30 nM |  |  |
| CCC(O)(C(=O)Nc1ccnc(Br)c1)C1CCCC1 (centres unmarked) [Compound 77B, N-(2-Bromo-pyridin-4-yl)-2-cyclopentyl-2-hydroxy-butyramide] |  | ≤ 30 nM |  |  |
| CCCC(C)(O)C(=O)Nc1cc(Br)nc(OC)c1 (centres unmarked) [Compound 78A, 2-Hydroxy-2-methyl-pentanoic acid (2-bromo-6-methoxy-pyridin-4-yl)-amide] |  | ≤ 100 nM |  |  |
| CCCC(O)(C(=O)Nc1cc(Br)nc(OC)c1)C(C)C (centres unmarked) [Compound 79B, 2-Hydroxy-2-isopropyl-pentanoic acid (2-bromo-6-methoxy-pyridin-4-yl)-amide] |  | ≤ 30 nM |  |  |
